The results in this text go back to patent US20250100996A1, “HETEROCYCLOALKYL AND HETEROARYL COMPOUNDS AND PHARMACEUTICAL COMPOSITIONS THAT MODULATE IKZF2” (Plexium, Inc., priority 2021, published 2025).

Experiment [1] deals with T1, human E3 ligase component cereblon (CRBN) (Homo sapiens, UniProt Q96SW2).
T1 construct: host or cells: HEK293T
The experiment can be described thus: Cereblon (CRBN) target engagement, NanoBRET TE Intracellular E3 Ligase Assay in transfected HEK-293T cells. The conditions noted are these: read-out: CRBN Binding EC50. In short, it runs like this:
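HEK-293T cells transiently co-transfected with NanoLuc-CRBN (N-terminal NanoLuc) and DDB1 were dosed with CRBN tracer and an 11-point compound series (typically 10 μM to 100 pM) for 2 h at 37° C. BRET at 450/610 nm gave IC50 by four-parameter logistic fit.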
Background: BRET reads energy transfer from a luciferase to a nearby fluorophore.

The target of the next experiment is T2, GSPT1 (Homo sapiens, UniProt P15170).
T2 construct: HiBiT-tagged cells were generated using CRISPR-Cas12a technology; endogenous in cells; host or cells: HEK293 (endogenous GSPT1 locus edited with HiBiT knock-in)
T2 sequence (Q96SW2 whole entry partner): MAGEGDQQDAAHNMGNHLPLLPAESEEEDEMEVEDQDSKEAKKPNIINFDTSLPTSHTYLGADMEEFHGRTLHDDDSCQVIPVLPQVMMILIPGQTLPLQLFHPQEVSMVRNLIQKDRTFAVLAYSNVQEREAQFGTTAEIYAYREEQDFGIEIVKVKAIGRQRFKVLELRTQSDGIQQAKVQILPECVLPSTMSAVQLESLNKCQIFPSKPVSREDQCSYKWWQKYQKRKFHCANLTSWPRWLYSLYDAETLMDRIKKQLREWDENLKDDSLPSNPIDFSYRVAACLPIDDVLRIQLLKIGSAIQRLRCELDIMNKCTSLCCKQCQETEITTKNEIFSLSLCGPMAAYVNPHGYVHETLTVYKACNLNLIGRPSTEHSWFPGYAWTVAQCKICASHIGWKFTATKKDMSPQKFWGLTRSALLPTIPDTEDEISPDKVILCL
T2 sequence (Q16531 whole entry partner): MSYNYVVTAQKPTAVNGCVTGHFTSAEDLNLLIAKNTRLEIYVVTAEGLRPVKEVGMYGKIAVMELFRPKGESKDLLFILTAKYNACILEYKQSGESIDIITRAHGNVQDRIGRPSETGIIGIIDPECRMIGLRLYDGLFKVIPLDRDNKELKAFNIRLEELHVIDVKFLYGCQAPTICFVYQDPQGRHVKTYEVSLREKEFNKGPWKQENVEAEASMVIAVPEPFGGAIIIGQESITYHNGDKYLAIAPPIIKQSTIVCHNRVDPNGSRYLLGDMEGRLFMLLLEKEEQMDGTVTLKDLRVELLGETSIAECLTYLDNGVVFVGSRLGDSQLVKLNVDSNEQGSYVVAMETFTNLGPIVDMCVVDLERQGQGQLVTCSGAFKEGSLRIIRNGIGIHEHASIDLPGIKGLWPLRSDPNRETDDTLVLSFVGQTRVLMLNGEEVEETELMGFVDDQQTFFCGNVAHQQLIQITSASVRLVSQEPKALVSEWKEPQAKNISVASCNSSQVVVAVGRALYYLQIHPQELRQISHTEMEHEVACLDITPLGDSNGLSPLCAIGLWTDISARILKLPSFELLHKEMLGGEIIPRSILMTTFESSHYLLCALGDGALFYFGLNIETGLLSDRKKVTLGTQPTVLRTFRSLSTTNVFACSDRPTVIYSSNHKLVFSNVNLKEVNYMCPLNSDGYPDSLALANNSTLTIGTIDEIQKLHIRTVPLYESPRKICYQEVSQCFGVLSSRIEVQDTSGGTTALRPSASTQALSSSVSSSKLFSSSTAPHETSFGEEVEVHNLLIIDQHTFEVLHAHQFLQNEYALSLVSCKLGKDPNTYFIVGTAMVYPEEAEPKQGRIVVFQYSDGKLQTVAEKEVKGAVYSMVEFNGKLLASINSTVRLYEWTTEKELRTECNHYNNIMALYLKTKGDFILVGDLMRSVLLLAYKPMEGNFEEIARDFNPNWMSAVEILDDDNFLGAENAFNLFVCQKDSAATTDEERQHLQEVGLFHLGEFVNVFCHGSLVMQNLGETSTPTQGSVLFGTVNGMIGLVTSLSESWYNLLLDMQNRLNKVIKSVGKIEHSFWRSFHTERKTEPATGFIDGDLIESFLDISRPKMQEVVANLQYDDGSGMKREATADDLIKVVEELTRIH
T2 sequence (P15170 whole entry): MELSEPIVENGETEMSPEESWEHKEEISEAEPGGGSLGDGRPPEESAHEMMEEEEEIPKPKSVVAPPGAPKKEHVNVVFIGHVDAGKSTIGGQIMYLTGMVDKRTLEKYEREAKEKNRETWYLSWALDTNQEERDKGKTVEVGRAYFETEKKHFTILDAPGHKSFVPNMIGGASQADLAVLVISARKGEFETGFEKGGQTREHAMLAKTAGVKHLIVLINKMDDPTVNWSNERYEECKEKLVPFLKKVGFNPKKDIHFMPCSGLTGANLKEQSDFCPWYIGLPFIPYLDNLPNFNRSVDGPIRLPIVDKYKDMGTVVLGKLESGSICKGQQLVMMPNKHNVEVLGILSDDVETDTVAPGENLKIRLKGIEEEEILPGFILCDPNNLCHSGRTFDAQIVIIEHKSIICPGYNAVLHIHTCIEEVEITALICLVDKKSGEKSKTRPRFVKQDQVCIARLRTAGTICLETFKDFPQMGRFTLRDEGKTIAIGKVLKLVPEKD
Nature of the experiment: GSPT1 reporter degradation assay (HEK293 hGSPT1 HiBiT-tagged cells). Type of experiment: cell-based. The conditions noted are these: 24 hour incubation. As for the experimental part: HEK293_hGSPTl_HiBiT-tagged cells were generated using CRISPR-Cas12a technology. Briefly, ˜400,000 HEK293 cells were transiently co-transfected with precomplexed ribonuclear proteins (RNPs) consisting of 80 pmol of crRNA (IDT), 62 pmol of Cas12a protein (IDT), 3 μg of ssODN donor (IDT; Alt® modifications), 78 pmol of electroporation enhancer (IDT), and 200 ng of pMaxGFP (Lonza). The transfection was performed via nucleofection (Lonza, 4D-Nucleofector X-unit) using solution P3 and program CM-130 in a ([…]) cuvette. Five days post-nucleofection, cells were single-cell-sorted for GFP+(transfected) cells by FACs in 96-well plates and clonally selected. Clones were screened and verified for the desired modification via targeted deep sequencing using gene-specific primers with partial Illumina adapter overhangs as previously described. In brief, clonal cell pellets were harvested, lysed, and used to generate gene-specific amplicons with partial Illumina adapters in PCR #1. Amplicons were indexed in PCR #2 and pooled with other targeted amplicons for other loci to create sequence diversity. Additionally, 10% PhiX sequencing control V3 (Illumina) was added to the pooled amplicon library prior to running the sample on a Miseq Sequencer System (Illumina) to generate paired 2×250 bp reads. Samples were demultiplexed using the index sequences, fastq files were generated, and NGS analysis was performed using CRIS.py. Final clones were authenticated using the PowerPlex fusion system (Promega) and tested negative for mycoplasma by the MycoAlertTMPlus mycoplasma detection kit (Lonza).
Editing construct sequences and screening primers are outlined below (sequence from 5′ to 3′). hGSPT1Cas12acrRNA, CAGE635.GSPT1.g1: […]; CAGE635.g1.anti.ssODN: ttcctcacagtattgtgcagggtcatcaagaaaatgctta[…] CAGCCGCTCACgtcCttctctggaaccagtttcagaacttttccaattgcaatggtcttacctagaaatgaaattttaa (HiBiT tag and silent blocking modifications to prevent Cas12a recutting after integration are in upper case); CAGE635.hGSPT1.DS.F: […]; CAGE635.hGSPT1.DS.R: GTGAA GTAGGCTTCTGCAGTC.
The GSPT1 degradation assay was carried out by harvesting the HEK 293T reporter cell lines and resuspending the cells in media formulated for reduced background fluorescence (FluoroBrite; Thermo Fisher). The respective cell lines were seeded at a density of 8,000 cells/well into white-opaque 384-well optical grade assay tissue culture plates (Greiner 781080-20). The cells were incubated overnight at 37° C. to allow for attachment to the assay plate. Dilutions of the compounds were prepared in DMSO from 10 mM compound stocks. Test compounds were added in a 10-point dilution series (typically 10 μM to 100 pM) using a TECAN D300e Digital Dispenser with an upper limit of 0.5% final DMSO. Plates were centrifuged at 320×g for 2 minutes at room temperature, and subsequently incubated at 37° C.
After 24 hour incubation with the compounds, the plates were allowed to cool to room temperature for 10 minutes. 30 μL of HiBiT lytic buffer+1:50 HiBiT substrate Solution were added to each well. Plates were centrifuged at 320×g for 2 minutes at room temperature and then incubated with shaking at room temperature for 10 minutes covered with foil. Plates were read on a CLARIOstar microplate reader (BMG LabTech), measuring at 450 nm (donor emission) and 610 nm or 630 nm (acceptor emission). The DC50 values were determined by regression to best fit four-parameter logistic curves using GraphPad Prism.
Background: HiBiT is a short tag that completes a luciferase, so light tracks the accessible tagged protein.

The next experiment addresses T3, IKZF1 (Ikaros) (Homo sapiens, UniProt Q13422).
T3 construct: mScarlet (behind P2A) (C, cleaved yes); expressed in transfected cells
The experiment can be described thus: IKZF1 reporter degradation assay (HEK 293T IKZF1-mNeonGreen reporter cell line). Type of experiment: cell-based. The conditions noted are these: HEK 293T IKZF1-mNeonGreen reporter, 24 hours incubation. In short, it runs like this:
(§1)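 Degradation is measured as loss of mNeonGreen fused C-terminally to each human IKZF protein in clonal HEK 293T cells, with co-expressed mScarlet as reference. Treatment lasts 24 h at 37 °C. DC50 is derived by logistic fitting of percent positive cells.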

Experiment [2] concerns the target T4, IKZF2 (Helios) (Homo sapiens, UniProt Q9UKS7).
T4 construct: Leu-Asp junction (codons ctcgac before the linker); mScarlet (behind P2A) (C, cleaved yes); expressed in transfected cells
The experiment can be described thus: IKZF2 reporter degradation assay (HEK 293T IKZF2-mNeonGreen reporter cell line). Type of experiment: cell-based. The conditions noted are these: HEK 293T IKZF2-mNeonGreen reporter, 24 hours incubation. The method in brief:
as §1

The target in experiment [3] is T5, IKZF2 (Helios) (Homo sapiens, UniProt Q96SW2+Q9UKS7).
T5 construct: Leu-Asp junction (codons ctcgac before the linker); mScarlet (behind P2A) (C, cleaved yes); expressed in transfected cells
T5 sequence (Q9UKS7 whole entry): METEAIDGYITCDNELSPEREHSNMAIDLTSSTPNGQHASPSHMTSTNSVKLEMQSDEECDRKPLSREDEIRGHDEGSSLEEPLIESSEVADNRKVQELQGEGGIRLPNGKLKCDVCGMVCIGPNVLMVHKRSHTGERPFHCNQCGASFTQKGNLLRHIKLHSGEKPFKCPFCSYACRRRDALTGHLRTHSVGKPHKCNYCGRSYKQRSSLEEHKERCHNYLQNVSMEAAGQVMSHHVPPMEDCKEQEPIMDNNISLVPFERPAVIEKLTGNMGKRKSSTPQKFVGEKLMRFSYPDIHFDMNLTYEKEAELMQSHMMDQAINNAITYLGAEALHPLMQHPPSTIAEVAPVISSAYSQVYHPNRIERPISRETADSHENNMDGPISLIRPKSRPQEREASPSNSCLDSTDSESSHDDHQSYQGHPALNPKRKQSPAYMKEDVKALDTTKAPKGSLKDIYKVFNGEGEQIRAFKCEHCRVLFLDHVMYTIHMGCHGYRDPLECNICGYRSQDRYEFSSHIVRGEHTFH
T5 sequence (Q96SW2 whole entry): as the sequence (Q96SW2 whole entry partner) above
T5 sequence (Q16531 whole entry partner): as the sequence (Q16531 whole entry partner) above
The experiment is described as above. Type of experiment: cell-based. The conditions noted are these: HEK-293T, 24 h, @ 1 μM, HEK 293T IKZF2-mNeonGreen reporter, 24 hours incubation. In short, it runs like this:
as §1

In a further experiment the target is T6, IKZF3 (Aiolos) (Homo sapiens, UniProt Q9UKT9).
T6 construct: Leu-Asp junction (codons ctcgac before the linker); mScarlet (behind P2A) (C, cleaved yes); expressed in transfected cells
T6 sequence (Q96SW2 whole entry partner): as the sequence (Q96SW2 whole entry partner) above
T6 sequence (Q16531 whole entry partner): as the sequence (Q16531 whole entry partner) above
T6 sequence (Q9UKT9 whole entry): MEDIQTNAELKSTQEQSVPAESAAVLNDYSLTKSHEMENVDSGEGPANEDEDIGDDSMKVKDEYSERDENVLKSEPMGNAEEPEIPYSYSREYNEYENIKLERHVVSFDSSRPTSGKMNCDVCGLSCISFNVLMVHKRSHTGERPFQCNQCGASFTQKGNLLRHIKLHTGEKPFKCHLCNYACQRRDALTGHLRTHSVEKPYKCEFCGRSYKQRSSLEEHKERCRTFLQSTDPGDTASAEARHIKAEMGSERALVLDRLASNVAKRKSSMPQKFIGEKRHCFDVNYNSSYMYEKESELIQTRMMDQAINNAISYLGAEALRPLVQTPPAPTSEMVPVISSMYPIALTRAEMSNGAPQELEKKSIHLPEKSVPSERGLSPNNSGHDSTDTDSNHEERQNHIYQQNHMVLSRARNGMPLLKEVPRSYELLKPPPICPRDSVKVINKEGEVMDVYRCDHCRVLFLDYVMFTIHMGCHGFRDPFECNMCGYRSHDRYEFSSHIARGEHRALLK
Nature of the experiment: IKZF3 reporter degradation assay (HEK 293T IKZF3-mNeonGreen reporter cell line). Type of experiment: cell-based. As to conditions: HEK 293T IKZF3-mNeonGreen reporter, 24 hours incubation. The method in brief: as §1

T3 sequence (Q96SW2 whole entry partner): as the sequence (Q96SW2 whole entry partner) above
T3 sequence (Q16531 whole entry partner): as the sequence (Q16531 whole entry partner) above
T3 sequence (Q13422 whole entry): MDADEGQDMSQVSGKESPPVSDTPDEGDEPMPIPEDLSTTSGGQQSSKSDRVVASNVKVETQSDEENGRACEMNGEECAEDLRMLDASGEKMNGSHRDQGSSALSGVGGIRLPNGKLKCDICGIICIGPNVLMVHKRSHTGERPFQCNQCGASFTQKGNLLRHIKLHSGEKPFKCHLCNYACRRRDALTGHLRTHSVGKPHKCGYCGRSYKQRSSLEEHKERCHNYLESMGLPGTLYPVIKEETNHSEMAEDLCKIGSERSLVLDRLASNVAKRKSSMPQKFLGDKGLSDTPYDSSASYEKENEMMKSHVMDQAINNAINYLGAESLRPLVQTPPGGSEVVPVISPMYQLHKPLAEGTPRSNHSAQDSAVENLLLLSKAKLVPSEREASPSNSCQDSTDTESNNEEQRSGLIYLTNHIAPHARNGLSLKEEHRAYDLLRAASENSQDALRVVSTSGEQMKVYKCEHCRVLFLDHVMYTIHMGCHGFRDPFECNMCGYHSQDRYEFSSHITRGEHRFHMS
T1 sequence (Q96SW2 whole entry): as the sequence (Q96SW2 whole entry partner) above
T1 sequence (Q16531 whole entry partner): as the sequence (Q16531 whole entry partner) above
T4 sequence (Q9UKS7 whole entry): as the sequence (Q9UKS7 whole entry) above
T4 sequence (Q96SW2 whole entry, further chain): as the sequence (Q96SW2 whole entry partner) above
T4 sequence (Q16531 whole entry partner): as the sequence (Q16531 whole entry partner) above

Turning to `Cc1cnc(C2CN([C@H]3CCCC3Oc3ccc4c(c3)CN(C3CCC(=O)NC3=O)C4=O)C2)o1` (mixture of isomers) [Compound 151-B, Rac-3-(5-(((trans)-2-(3-(5-methyloxazol-2-yl)azetidin-1-yl)cyclopentyl)oxy)-1-oxoisoindolin-2-yl)piperidine-2,6-dione], the concentration giving a half-maximal response (EC50) (usually the concentration at which the effect is half-maximal) in experiment [1] is 0.079 µM. For the same compound, on GSPT1, the DC50 (as a rule, the concentration giving 50% degradation) was over 30 µM.

With `Cc1cnc(C2CN([C@H]3CCCC3Oc3ccc4c(c3)CN(C3CCC(=O)NC3=O)C4=O)C2)o1` (mixture of isomers) [Compound 161-B, Rac-3-(5-(((cis)-2-(3-(5-methyloxazol-2-yl)azetidin-1-yl)cyclopentyl)oxy)-1-oxoisoindolin-2-yl)piperidine-2,6-dione], the EC50 in experiment [1] came out at 0.12 µM. For the same compound, the DC50 was over 30 µM at IKZF1 (Ikaros), 0.138 µM on IKZF2 (Helios) [2] and over 30 µM on IKZF3 (Aiolos). Testing at 1 µM against IKZF2 (Helios) [3] gave an inhibition of 49.7%.

For `O=C1CCC(N2Cc3cc(O[C@@H]4CCCC[C@@H]4N4CC(c5ccncc5Cl)C4)ccc3C2=O)C(=O)N1` (mixture of isomers) [Compound 162-B, Rac-3-(5-(((cis)-2-(3-(3-chloropyridin-4-yl)azetidin-1-yl)cyclohexyl)oxy)-1-oxoisoindolin-2-yl)piperidine-2,6-dione], the concentration for a half-maximal effect (EC50) in experiment [1] turned out to be 0.059 µM. For the same compound, the values for the DC50 on IKZF1 (Ikaros), at IKZF2 (Helios) [2] and on IKZF3 (Aiolos) were over 30 µM, 0.022 µM and over 30 µM, respectively. Besides, 1 µM produced 70.4% inhibition against IKZF2 (Helios) [3].

For `Cc1nccc(C2CN(C3CCCCC3Oc3ccc4c(c3)CN(C3CCC(=O)NC3=O)C4=O)C2)n1` (stereo not shown) [Compound 190-B, 3-(5-((2-(3-(2-methylpyrimidin-4-yl)azetidin-1-yl)cyclohexyl)oxy)-1-oxoisoindolin-2-yl)piperidine-2,6-dione], the EC50 in experiment [1] came to 0.044 µM. For the same compound, the DC50 at IKZF1 (Ikaros) is over 30 µM; on IKZF2 (Helios) [2], 0.071 µM; at IKZF3 (Aiolos) it was over 30 µM. Besides, on IKZF2 (Helios) [3], the inhibition (commonly the drop in the measured response relative to a control, in per cent) at 1 µM came out at 74.3%.

Take `O=C1CCC(N2Cc3cc(O[C@@H]4CCCC[C@@H]4N4CC(c5ccc(C(F)(F)F)nc5)C4)ccc3C2=O)C(=O)N1` (mixture of isomers) [Compound 183-B, Rac-3-(1-oxo-5-(((cis)-2-(3-(6-(trifluoromethyl)pyridin-3-yl)azetidin-1-yl)cyclohexyl)oxy)isoindolin-2-yl)piperidine-2,6-dione]: the EC50 in experiment [1] is 0.015 µM. Besides, the figures for the DC50 on IKZF1 (Ikaros), at IKZF2 (Helios) [2] and at IKZF3 (Aiolos) were over 30 µM, 0.01 µM and over 30 µM, respectively. Besides, 1 µM produced 81.3% inhibition against IKZF2 (Helios) [3].

With `O=C1CCC(N2Cc3cc(O[C@@H]4CCCC[C@H]4N4CC(c5ccc(Cl)cn5)C4)ccc3C2=O)C(=O)N1` (mixture of isomers) [Compound 163-B, Rac-3-(5-(((trans)-2-(3-(5-chloropyridin-2-yl)azetidin-1-yl)cyclohexyl)oxy)-1-oxoisoindolin-2-yl)piperidine-2,6-dione], in experiment [1], the EC50 came out at 0.011 µM. The 50% degradation concentration (DC50) at IKZF1 (Ikaros) was over 30 µM; on IKZF2 (Helios) [2], 0.011 µM; on IKZF3 (Aiolos) it was over 30 µM. On IKZF2 (Helios) [3], this compound showed an inhibition at 1 µM of 71.5%.

With `O=C1CCC(N2Cc3cc(OC4CCCCC4N4CC(c5cccc6[nH]ncc56)C4)ccc3C2=O)C(=O)N1` (stereo not shown) [Compound 211-B, 3-(5-((2-(3-(2H-indazol-4-yl)azetidin-1-yl)cyclohexyl)oxy)-1-oxoisoindolin-2-yl)piperidine-2,6-dione], the EC50 in experiment [1] was 0.028 µM. The DC50 on IKZF1 (Ikaros) is over 30 µM; at IKZF2 (Helios) [2] it was 0.064 µM; on IKZF3 (Aiolos), over 30 µM. The compound also yielded an inhibition at 1 µM against IKZF2 (Helios) [3] of 79.3%.

Take `O=C1CCC(N2Cc3cc(OC4CCC[C@@H]4N4CC(c5ccccn5)C4)ccc3C2=O)C(=O)N1` (mixture of isomers) [Compound 209-B, Rac-3-(1-oxo-5-(((cis)-2-(3-(pyridin-2-yl)azetidin-1-yl)cyclopentyl)oxy)isoindolin-2-yl)piperidine-2,6-dione]: the EC50 in experiment [1] was 0.058 µM. For the same compound, the half-maximal degradation concentration (DC50) is over 30 µM at IKZF1 (Ikaros), 0.23 µM at IKZF2 (Helios) [2] and over 30 µM at IKZF3 (Aiolos). Further, on IKZF2 (Helios) [3], 1 µM produced 38.9% inhibition.

In the case of `Cc1cnc(C2CN([C@H]3CCCC[C@H]3Oc3ccc4c(c3)CN(C3CCC(=O)NC3=O)C4=O)C2)o1` (mixture of isomers) [Compound 174-B, Rac-3-(5-(((cis)-2-(3-(5-methyloxazol-2-yl)azetidin-1-yl)cyclohexyl)oxy)-1-oxoisoindolin-2-yl)piperidine-2,6-dione], the concentration giving a half-maximal response (EC50) in experiment [1] stood at 0.036 µM. Besides, the results for the DC50 on IKZF1 (Ikaros), on IKZF2 (Helios) [2] and on IKZF3 (Aiolos) were over 30 µM, 0.028 µM and over 30 µM, respectively. The compound further gave an inhibition at 1 µM against IKZF2 (Helios) [3] of 70.3%.

Regarding `O=C1CCC(N2Cc3cc(OC4CCCCC4N4CC(C(=O)N5CCCCC5)C4)ccc3C2=O)C(=O)N1` (single isomer, unassigned) [Compound 23-A, 3-(1-oxo-5-((2-(3-(piperidine-1-carbonyl)azetidin-1-yl)cyclohexyl)oxy)isoindolin-2-yl)piperidine-2,6-dione], the half-maximal degradation concentration (DC50) on GSPT1 is over 30 µM.
